Measured values: the supplement of paper PMC10307832

Experiments:
Test in all cases: relative viability (nuclei count vs DMSO), 5 days (fraction); higher = more cells survive
[1] = compound: Cc1nc(NC(=O)N2CCC[C@H]2C(N)=O)sc1-c1ccnc(C(C)(C)C(F)(F)F)c1 [Alpelisib] + CS(=O)(=O)CCNCc1ccc(-c2ccc3ncnc(Nc4ccc(OCc5cccc(F)c5)c(Cl)c4)c3c2)o1 [Lapatinib] (partner 2 µM)
Method in brief: (§1)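 Five library-drug doses in √10 steps were combined with a fixed anchor-drug dose, or a single drug was given alone, by pin tool to lung cancer cell lines in 1536-well plates the day after seeding. Nuclei were stained and counted after 5 days. Relative viability is the nuclei count in treated wells over that in vehicle wells, taken as the median of duplicate plates.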

[2] = compound: Cc1nc(NC(=O)N2CCC[C@H]2C(N)=O)sc1-c1ccnc(C(C)(C)C(F)(F)F)c1 [Alpelisib] + C[C@]1(O)C[C@@H](c2nc(-c3ccc4ccc(-c5ccccc5)nc4c3)c3c(N)nccn32)C1 [Linsitinib] (partner 1 µM)
Method in brief: as §1

[3] = compound: CCCS(=O)(=O)Nc1ccc(F)c(C(=O)c2c[nH]c3ncc(-c4ccc(Cl)cc4)cc23)c1F [Vemurafenib] + NC(=O)Nc1cc(-c2cccc(F)c2)sc1C(=O)N[C@H]1CCCNC1 [AZD7762] (partner 0.2 µM)
Method in brief: as §1

[4] = compound: Cc1nc(NC(=O)N2CCC[C@H]2C(N)=O)sc1-c1ccnc(C(C)(C)C(F)(F)F)c1 [Alpelisib] + Cc1nc(Nc2ncc(C(=O)Nc3c(C)cccc3Cl)s2)cc(N2CCN(CCO)CC2)n1 [Dasatinib] (partner 0.075 µM)
Method in brief: as §1

| Cell Line | relative viability ([1]; first compound 0.04 µM) | relative viability ([1]; first compound 0.1265 µM) | relative viability ([1]; first compound 0.4 µM) | relative viability ([1]; first compound 1.265 µM) | relative viability ([1]; first compound 4 µM) | relative viability ([2]; first compound 0.04 µM) | relative viability ([2]; first compound 0.1265 µM) | relative viability ([2]; first compound 0.4 µM) | relative viability ([2]; first compound 1.265 µM) | relative viability ([2]; first compound 4 µM) | relative viability ([3]; first compound 0.03162 µM) | relative viability ([3]; first compound 0.1 µM) | relative viability ([3]; first compound 0.3162 µM) | relative viability ([3]; first compound 1 µM) | relative viability ([4]; first compound 0.04 µM) | relative viability ([4]; first compound 0.1265 µM) | relative viability ([4]; first compound 0.4 µM) | relative viability ([4]; first compound 1.265 µM) | relative viability ([4]; first compound 4 µM) |
| --- | --- | --- | --- | --- | --- | --- | --- | --- | --- | --- | --- | --- | --- | --- | --- | --- | --- | --- | --- |
| NCI-H647 | 0.959 | 1.14 | 1.35 | 0.99 | 0.756 | 1.01 | 1.29 | 1.13 | 1.12 | 1.12 | 0.433 | 0.541 | 0.26 | 0.432 | 0.228 | 0.163 | 0.214 | 0.0992 | 0.123 |
| HCC-78 | 0.619 | 0.39 | 1.07 | 0.659 | 0.413 | 0.448 | 0.477 | 0.601 | 0.42 | 0.345 | 0.513 | 0.493 | 0.65 | 0.777 | 0.367 | 0.326 | 0.357 | 0.366 | 0.314 |
| ABC-1 | 0.943 | 0.988 | 1.17 | 0.706 | 0.717 | 0.716 | 0.695 | 0.86 | 0.847 | 0.709 | 0.668 | 0.775 | 0.622 | 0.813 | 0.637 | 0.495 | 0.823 | 0.484 | 0.386 |
